Where two headings read alike, the source gives them in different places.
Molecular target: T1, F508delCFTR (Homo sapiens, UniProt P13569, DEL508-508)
T1 construct: expressed in transfected cells; host or cells: CFBE41o- human lung-derived epithelial cells (CFBE4lo-F508delCFTR-HRP), doxycycline-inducible
Assay: Cell Surface Expression-Horse Radish Peroxidase (CSE-HRP) Assay;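 for Maximum % activity (with co-corrector): co-corrector and positive control are both the same reference corrector at 2 µM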;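 for Maximum % activity (without co-corrector): percent of the 2 µM on-plate positive control corrector response above DMSO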
Type: cell-based
Conditions: for Maximum % activity (with co-corrector): with co-corrector (2 μM); for Maximum % activity (with co-corrector) / Emax: maximum at any tested concentration, normalized to on-plate positive control; for Emax: without co-corrector, read-out: Maximum % activity (without co-corrector)

[1] = test compound without co-corrector, read-out: EC50 (without co-corrector)
[2] = with co-corrector (2 μM of 3-[(2R,4R)-4-({[1-(2,2-difluoro-1,3-benzodioxol-5-yl)cyclopropyl]carbonyl}amino)-7-methoxy-3,4-dihydro-2H-chromen-2-yl]benzoic acid), read-out: EC50 (with co-corrector)

T1 sequence (P13569 with tags, fused parts or gaps DEL508-508): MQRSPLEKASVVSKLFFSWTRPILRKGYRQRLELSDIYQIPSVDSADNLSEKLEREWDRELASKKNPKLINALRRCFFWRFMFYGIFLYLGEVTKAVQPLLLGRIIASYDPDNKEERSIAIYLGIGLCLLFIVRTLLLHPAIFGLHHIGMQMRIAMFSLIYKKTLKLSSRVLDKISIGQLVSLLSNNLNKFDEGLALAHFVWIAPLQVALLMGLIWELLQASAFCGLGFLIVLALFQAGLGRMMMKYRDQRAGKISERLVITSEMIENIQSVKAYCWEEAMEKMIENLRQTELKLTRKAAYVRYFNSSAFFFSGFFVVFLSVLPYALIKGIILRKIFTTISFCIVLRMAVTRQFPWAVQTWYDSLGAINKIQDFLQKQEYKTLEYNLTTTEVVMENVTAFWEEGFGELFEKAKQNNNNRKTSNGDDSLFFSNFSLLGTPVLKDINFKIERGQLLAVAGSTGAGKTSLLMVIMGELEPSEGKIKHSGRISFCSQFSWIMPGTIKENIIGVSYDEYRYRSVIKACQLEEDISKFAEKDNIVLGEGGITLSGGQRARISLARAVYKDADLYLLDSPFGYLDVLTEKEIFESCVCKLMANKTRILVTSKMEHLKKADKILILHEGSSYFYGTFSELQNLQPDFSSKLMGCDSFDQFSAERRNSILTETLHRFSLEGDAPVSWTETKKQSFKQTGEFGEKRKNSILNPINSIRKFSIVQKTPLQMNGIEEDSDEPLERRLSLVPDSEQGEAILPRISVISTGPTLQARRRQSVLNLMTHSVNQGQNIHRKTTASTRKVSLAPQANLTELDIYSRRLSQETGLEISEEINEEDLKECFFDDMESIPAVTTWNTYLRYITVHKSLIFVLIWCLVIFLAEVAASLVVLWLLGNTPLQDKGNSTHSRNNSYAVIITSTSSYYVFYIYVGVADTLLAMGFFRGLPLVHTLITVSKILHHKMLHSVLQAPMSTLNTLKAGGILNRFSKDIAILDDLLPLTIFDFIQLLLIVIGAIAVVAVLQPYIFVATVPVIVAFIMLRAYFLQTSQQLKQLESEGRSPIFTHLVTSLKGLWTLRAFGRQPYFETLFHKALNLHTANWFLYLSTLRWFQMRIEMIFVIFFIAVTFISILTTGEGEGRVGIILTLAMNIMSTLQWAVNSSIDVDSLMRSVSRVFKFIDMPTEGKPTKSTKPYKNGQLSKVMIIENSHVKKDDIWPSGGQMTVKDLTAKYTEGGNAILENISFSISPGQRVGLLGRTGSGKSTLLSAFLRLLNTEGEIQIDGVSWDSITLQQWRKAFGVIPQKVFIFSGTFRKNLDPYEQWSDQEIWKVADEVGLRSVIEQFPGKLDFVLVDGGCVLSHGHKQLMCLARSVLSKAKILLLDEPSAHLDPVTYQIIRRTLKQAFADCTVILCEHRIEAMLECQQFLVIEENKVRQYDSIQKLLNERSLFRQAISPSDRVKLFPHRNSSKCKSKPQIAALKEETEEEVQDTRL

EC50 [1] [nM] | EC50 [2] [nM] | Maximum % activity (with co-corrector) | Emax [%] | SMILES
1000 to 10000 | < 1000 | +++ (≥350) | 100 to 200 | COc1ccc(C(C)(C)C)cc1CN[C@H]1[C@H](C(C)(C)C)[C@@H](C(=O)O)N(C(=O)c2ccc(OC3CCCCC3)cc2)[C@H]1c1cccnc1N(C)C [Example I-200]
1000 to 10000 | < 1000 | +++ (≥350) | > 200 | COc1ccc(C(C)(C)C)cc1CN[C@H]1[C@H](C(C)(C)C)[C@@H](C(=O)O)N(C(=O)C2C3CCCC32)[C@H]1c1cccnc1N(C)C (some centres unmarked) [Example I-201]
1000 to 10000 | < 1000 | +++ (≥350) | > 200 | COc1ccc(C(C)(C)C)cc1CN[C@H]1[C@H](C23CC(C2)C3)[C@@H](C(=O)O)N(C(=O)C2CCCCC2)[C@H]1c1ccccc1 [Example I-202]
1000 to 10000 | 1000 to 10000 | ++ (≥150 and <350) | < 100 | COc1ccc(C(C)(C)C)cc1CN[C@@H]1[C@@H](C(C)(C)C)[C@H](C(=O)NS(C)(=O)=O)N(C(=O)C2CCCCC2)[C@@H]1c1ccccc1 [Example I-203]
1000 to 10000 | 1000 to 10000 | +++ (≥350) | 100 to 200 | COc1ncc(C2CCC2)cc1CN[C@H]1[C@H](C(C)(C)C)[C@@H](C(=O)O)N(C(=O)C2Cc3ccccc3CO2)[C@H]1c1ccccc1 (some centres unmarked) [Example I-206]
1000 to 10000 | 1000 to 10000 | +++ (≥350) | 100 to 200 | COc1nc(C(C)(C)C)ncc1CN[C@H]1[C@H](C(C)(C)C)[C@@H](C(=O)O)N(C(=O)C2CCCCC2)[C@H]1c1ccccc1 [Example I-207]
1000 to 10000 | 1000 to 10000 | +++ (≥350) | 100 to 200 | COc1ncc(C(F)(F)F)cc1CN[C@H]1[C@H](C(C)(C)C)[C@@H](C(=O)O)N(C(=O)[C@@H]2CCCCO2)[C@H]1c1cccnc1N(C)C [Example I-208]
1000 to 10000 | 1000 to 10000 | +++ (≥350) | > 200 | COc1ccc(C(C)(C)C)cc1CN[C@H]1[C@H](C(C)(C)C)[C@@H](C(=O)O)N(C(=O)[C@@H]2CCCCO2)[C@H]1c1cccnc1OC [Example I-209]
1000 to 10000 | < 1000 | +++ (≥350) | > 200 | COc1ccc(C23CC(C2)C3)cc1CN[C@H]1[C@H](C(C)(C)C)[C@@H](C(=O)O)N(C(=O)OC(C)C)[C@H]1c1ccccc1 [Example I-210]
1000 to 10000 | 1000 to 10000 | ++ (≥150 and <350) | < 100 | COc1cnc(N2CCCC2)cc1CN[C@H]1[C@H](C(C)(C)C)[C@@H](C(=O)O)N(C(=O)C2CCCCC2)[C@H]1c1ccccc1 [Example I-212]
1000 to 10000 | 1000 to 10000 | +++ (≥350) | > 200 | COc1ccc(C(C)(C)C(F)(F)F)cc1CN[C@H]1[C@H](C(C)(C)C)[C@@H](C(=O)O)N(C(=O)C2CCCCC2)[C@H]1c1ccccc1 [Example I-213]
1000 to 10000 | 1000 to 10000 | +++ (≥350) | > 200 | COc1ncc(C2CCC2)cc1CN[C@H]1[C@H](C(C)(C)C)[C@@H](C(=O)O)N(C(=O)OC(C)C)[C@H]1c1ccccc1 [Example I-214]
> 10000 | 1000 to 10000 | ++ (≥150 and <350) | < 100 | COc1ncc(C(F)(F)F)cc1N[C@H]1[C@H](C(C)(C)C)[C@@H](C(=O)O)N(C(=O)[C@@H]2CCCCO2)[C@H]1c1cccnc1N(C)C [Example I-215]
< 1000 | < 1000 | +++ (≥350) | > 200 | COc1nc(C(C)(C)C)ccc1CN[C@H]1[C@H](C(C)(C)C)[C@@H](C(=O)O)N(C(=O)OC(C)C)[C@H]1c1ccccc1C(C)C [Example I-216]
1000 to 10000 | 1000 to 10000 | +++ (≥350) | > 200 | COc1ccc(C(C)(C)C)cc1CN[C@H]1[C@H](C(C)(C)C)[C@@H](C(=O)O)N(C(=O)C2CCOC2C(C)C)[C@H]1c1ccccc1 (some centres unmarked) [Example I-218]
1000 to 10000 | 1000 to 10000 | +++ (≥350) | 100 to 200 | CC(C)(C)[C@H]1[C@H](NCC2(c3ccccc3Cl)CCOCC2)[C@H](c2ccccc2)N(C(=O)C2CCCCC2)[C@@H]1C(=O)O [Example I-219]
1000 to 10000 | 1000 to 10000 | +++ (≥350) | > 200 | COc1ccc(C(C)(C)C)cc1CN[C@H]1[C@H](C(C)(C)OC)[C@@H](C(=O)O)N(C(=O)OC(C)C)[C@H]1c1cccnc1N(C)C [Example I-220]
1000 to 10000 | 1000 to 10000 | +++ (≥350) | > 200 | COc1ccc(C(C)(C)C)cc1CN[C@H]1[C@H](C(C)(C)C)[C@@H](C(=O)O)N(C(=O)OC(C)C)[C@H]1c1ccccc1F [Example I-221]
1000 to 10000 | 1000 to 10000 | ++ (≥150 and <350) | < 100 | Cc1cc(C(F)(F)F)cc(N[C@H]2[C@H](C(C)(C)C)[C@@H](C(=O)O)N(C(=O)C3C4CCCC43)[C@H]2c2cccnc2N(C)C)n1 (some centres unmarked) [Example I-222]
1000 to 10000 | 1000 to 10000 | +++ (≥350) | 100 to 200 | COc1ccc(C23CC(C2)C3)cc1CN[C@H]1[C@H](C(C)(C)C)[C@@H](C(=O)O)N(C(=O)OC(C)C)[C@H]1c1cccnc1OC [Example I-224]
1000 to 10000 | 1000 to 10000 | +++ (≥350) | 100 to 200 | COc1ccc(C(C)(C)C)cc1CN[C@H]1[C@H](C(C)(C)C)[C@@H](C(=O)O)N(C(=O)C2CCCCC2)[C@H]1c1cccnc1OC(F)F [Example I-225]
1000 to 10000 | 1000 to 10000 | +++ (≥350) | > 200 | COc1ccc(C(C)(C)C)cc1CN[C@H]1[C@H](C23CC(C2)C3)[C@@H](C(=O)O)N(C(=O)OC(C)C)[C@H]1c1ccccc1 [Example I-226]
1000 to 10000 | 1000 to 10000 | +++ (≥350) | 100 to 200 | COc1ccc(C(C)(C)C)cc1CN[C@H]1[C@H](C(C)(C)C)[C@@H](C(=O)O)N(C(=O)OC(C)C)[C@H]1c1cccnc1OC(F)F [Example I-227]
1000 to 10000 | 1000 to 10000 | +++ (≥350) | 100 to 200 | COc1ccc(C23CC(C2)C3)cc1CN[C@H]1[C@H](C(C)(C)C)[C@@H](C(=O)O)N(C(=O)C2CCCCC2)[C@H]1c1cccnc1OC(F)F [Example I-228]
1000 to 10000 | < 1000 | +++ (≥350) | 100 to 200 | COc1ccc(C(C)(C)C)cc1CN[C@H]1[C@H](C(C)(C)C)[C@@H](C(=O)O)N(C(=O)C2CCCCC2)[C@H]1c1ccccc1OC(F)F [Example I-229]
1000 to 10000 | 1000 to 10000 | +++ (≥350) | 100 to 200 | COc1nc(C(C)(C)C)ccc1CN[C@H]1[C@H](C(C)(C)C)[C@@H](C(=O)O)N(C(=O)C2CCCCC2)[C@H]1c1cccnc1OC [Example I-230]
1000 to 10000 | 1000 to 10000 | +++ (≥350) | 100 to 200 | COc1nc(C(C)(C)C)ccc1CN[C@H]1[C@H](C(C)(C)C)[C@@H](C(=O)O)N(C(=O)[C@@H]2CCCCO2)[C@H]1c1ccccc1F [Example I-231]
1000 to 10000 | 1000 to 10000 | +++ (≥350) | > 200 | COc1ccc(C(C)(C)C)cc1CN[C@H]1[C@H](C(C)(C)C)[C@@H](C(=O)O)N(C(=O)OC(C)(C)C)[C@H]1c1cccnc1OC [Example I-232]
1000 to 10000 | 1000 to 10000 | +++ (≥350) | 100 to 200 | COc1ccc(C(C)(C)C)cc1CN[C@H]1[C@H](C(C)(C)C)[C@@H](C(=O)O)N(C(=O)[C@H](C)c2ccccc2)[C@H]1c1cccnc1N(C)C [Example I-233]

— patent US20180099931A1 (AbbVie S.à.r.l., priority 2016, published 2018)
